Reference: patent US4681872A (priority 1985, dated 1987)
In brackets after ≈: the same amount, converted by molar mass. Like-named read-outs stand apart in the source and are kept apart here.

Columns and labels:
[1] = system: Cl. perfringens 788; assay: microbe, parasite or virus in culture; assay type: cell-based
[2] = system: Enterococcus GYR 1167; assay: antimicrobial spectrum, agar dilution MIC
[3] = system: Acinetobacter SP CMX 669; assay: antimicrobial spectrum, agar dilution MIC
[4] = system: Bact. fragilis 105; assay: antimicrobial spectrum, agar dilution MIC; assay type: cell-based; settings: BHI agar, 35°-37° C., 20-24 hours
[5] = system: Staph. epidermidis GYR 1151; assay: antimicrobial spectrum, agar dilution MIC; assay type: cell-based; settings: 35°-37° C., 20-24 hours
[6] = system: Staph. epidermidis 3519 RARI; assay: microbe, parasite or virus in culture; assay type: cell-based
[7] = system: Strep. pneumoniae 78-008107; assay: antimicrobial spectrum, agar dilution MIC
[8] = system: Enterococcus A-5168; assay: antimicrobial spectrum, agar dilution MIC
[9] = system: Bact. thetaiotamicron 3304; assay: antimicrobial spectrum, agar dilution MIC; assay type: cell-based; settings: BHI agar, 35°-37° C., 20-24 hours
[10] = system: Staph. aureus CMX 730A; assay: antimicrobial spectrum, agar dilution MIC; assay type: cell-based; settings: BHI agar, 35°-37° C., 20-24 hours
[11] = system: E. coli KNK 437; assay: antimicrobial spectrum, agar dilution MIC
[12] = system: Enterococcus GYR 1164; assay: antimicrobial spectrum, agar dilution MIC
[13] = system: Enterococcus CMX 736F; assay: antimicrobial spectrum, agar dilution MIC
[14] = system: Cl. perfringens 104; assay: microbe, parasite or virus in culture; assay type: cell-based
[15] = system: Enterococcus CMX 729G; assay: antimicrobial spectrum, agar dilution MIC
[16] = system: Staph. aureus CYR 1150; assay: antimicrobial spectrum, agar dilution MIC; assay type: cell-based; settings: 35°-37° C., 20-24 hours
[17] = system: Enterococcus GYR 1166; assay: microbe, parasite or virus in culture; assay type: cell-based
[18] = system: Strep. faecalis CMX 663F; assay: antimicrobial spectrum, agar dilution MIC
[19] = system: Staph. epidermidis CMX 729h; assay: antimicrobial spectrum, agar dilution MIC
[20] = system: Veillonella parvula ATCC 10790; assay: antimicrobial spectrum, agar dilution MIC
[21] = system: Staph. aureus; assay: acute mouse protection test; assay type: in vivo, Swiss albino mice; settings: for ED50: Staphylococcus aureus, 168 h
[22] = system: Staph. aureus A5177; assay: antimicrobial spectrum, agar dilution MIC
[23] = system: Strep. pyogenes M79061-139; assay: antimicrobial spectrum, agar dilution MIC; assay type: cell-based; settings: 35°-37° C., 20-24 hours
[24] = system: Bact. SP SFM2975-2; assay: antimicrobial spectrum, agar dilution MIC
[25] = system: Bact. thetaiotamicron 106; assay: antimicrobial spectrum, agar dilution MIC
[26] = system: Bact. melaninogenicus ATCC 15930; assay: antimicrobial spectrum, agar dilution MIC; assay type: cell-based; settings: 35°-37° C., 20-24 hours
[27] = system: Pseudomonas aeruginosa K799/61; assay: antimicrobial spectrum, agar dilution MIC
[28] = system: Staph. epidermidis CMX 724G; assay: antimicrobial spectrum, agar dilution MIC
[29] = system: E. coli DC-2; assay: antimicrobial spectrum, agar dilution MIC
[30] = system: Peptostrep. anaerobius ATCC 27337; assay: antimicrobial spectrum, agar dilution MIC
[31] = system: Strep. pneumoniae CMX 635; assay: antimicrobial spectrum, agar dilution MIC; assay type: cell-based; settings: 35°-37° C., 20-24 hours
[32] = system: Ent. aerogenes ATCC 10348; assay: antimicrobial spectrum, agar dilution MIC
[33] = system: Staph. aureus CMX 705; assay: antimicrobial spectrum, agar dilution MIC; assay type: cell-based; settings: 35°-37° C., 20-24 hours

## CCC1OC(=O)C(C)C(OC2CC(C)(OC)CC(C)O2)C(C)C(OC2OC(C)CC(N(C)C)C2O)C(C)(O)CC(C)C(=O)C(C)C2OC(=O)OC12C (centres unmarked) [4"-deoxyerythromycin A 11,12-carbonate]
[1]; Cl. perfringens 788, BHI agar, 35°-37° C., 20-24 hours
  MIC: .4 µg/mL (≈ 0.538 µM)
[2]; Enterococcus GYR 1167, BHI agar, 35°-37° C., 20-24 hours
  MIC: .5 µg/mL (≈ 0.672 µM)
[3]; Acinetobacter SP CMX 669, BHI agar, 35°-37° C., 20-24 hours
  MIC: 6.2 µg/mL (≈ 8.33 µM)
[4]
  MIC: .2 µg/mL (≈ 0.269 µM)
[5]; BHI agar
  MIC: .06 µg/mL (≈ 0.0807 µM)
[6]; Staph. epidermidis 3519 RARI, BHI agar, 35°-37° C., 20-24 hours
  MIC: .1 µg/mL (≈ 0.134 µM)
[7]; Strep. pneumoniae 78-008107, BHI agar, 35°-37° C., 20-24 hours
  MIC: 32 µg/mL (≈ 43 µM)
[8]; Enterococcus A-5168, BHI agar, 35°-37° C., 20-24 hours
  MIC: 128 µg/mL (≈ 172 µM)
[9]
  MIC: 3.1 µg/mL (≈ 4.17 µM)
[10]
  MIC: .03 µg/mL (≈ 0.0403 µM)
[11]; E. coli KNK 437, BHI agar, 35°-37° C., 20-24 hours
  MIC: 25 µg/mL (≈ 33.6 µM)
[12]; Enterococcus GYR 1164, BHI agar, 35°-37° C., 20-24 hours
  MIC: .12 µg/mL (≈ 0.161 µM)
[13]; Enterococcus CMX 736F, BHI agar, 35°-37° C., 20-24 hours
  MIC: .12 µg/mL (≈ 0.161 µM)
[14]; Cl. perfringens 104, BHI agar, 35°-37° C., 20-24 hours
  MIC: .4 µg/mL (≈ 0.538 µM)
[15]; Enterococcus CMX 729G, BHI agar, 35°-37° C., 20-24 hours
  MIC: .12 µg/mL (≈ 0.161 µM)
[16]; BHI agar
  MIC: .03 µg/mL (≈ 0.0403 µM)
[17]; Enterococcus GYR 1166, BHI agar, 35°-37° C., 20-24 hours
  MIC: .12 µg/mL (≈ 0.161 µM)
[18]; Strep. faecalis CMX 663F, BHI agar, 35°-37° C., 20-24 hours
  MIC: 2 µg/mL (≈ 2.69 µM)
[19]; Staph. epidermidis CMX 729h, BHI agar, 35°-37° C., 20-24 hours
  MIC: 128 µg/mL (≈ 172 µM)
[20]; Veillonella parvula ATCC 10790, BHI agar, 35°-37° C., 20-24 hours
  MIC: 3.1 µg/mL (≈ 4.17 µM)
[21]; Staph. aureus, mice, oral, dosed 1 and 5 hours post-infection, observed 7 days
  ED-50: 31.4 mg/kg
[21]; Staph. aureus, mice, subcutaneous, dosed 1 and 5 hours post-infection, observed 7 days
  ED-50: 36.3 mg/kg
[22]; Staph. aureus A5177, BHI agar, 35°-37° C., 20-24 hours
  MIC: .39 µg/mL (≈ 0.524 µM)
[23]; BHI agar
  MIC: .015 µg/mL (≈ 0.0202 µM)
[24]; Bact. SP SFM2975-2, BHI agar, 35°-37° C., 20-24 hours
  MIC: .8 µg/mL (≈ 1.08 µM)
[25]; Bact. thetaiotamicron 106, BHI agar, 35°-37° C., 20-24 hours
  MIC: 3.1 µg/mL (≈ 4.17 µM)
[26]; BHI agar
  MIC: .1 µg/mL (≈ 0.134 µM)
[27]; Pseudomonas aeruginosa K799/61, BHI agar, 35°-37° C., 20-24 hours
  MIC: 1.56 µg/mL (≈ 2.1 µM)
[28]; Staph. epidermidis CMX 724G, BHI agar, 35°-37° C., 20-24 hours
  MIC: 128 µg/mL (≈ 172 µM)
[29]; E. coli DC-2, BHI agar, 35°-37° C., 20-24 hours
  MIC: 25 µg/mL (≈ 33.6 µM)
[30]; Peptostrep. anaerobius ATCC 27337, BHI agar, 35°-37° C., 20-24 hours
  MIC: .05 µg/mL (≈ 0.0672 µM)
[31]; BHI agar
  MIC: .008 µg/mL (≈ 0.0108 µM)
[32]; Ent. aerogenes ATCC 10348, BHI agar, 35°-37° C., 20-24 hours
  MIC: 50 µg/mL (≈ 67.2 µM)
[33]; BHI agar
  MIC: .03 µg/mL (≈ 0.0403 µM)

## CC[C@H]1OC(=O)[C@H](C)[C@@H](O[C@H]2C[C@@](C)(OC)[C@@H](O)[C@H](C)O2)[C@H](C)[C@@H](O[C@@H]2O[C@H](C)C[C@H](N(C)C)[C@H]2O)[C@](C)(O)C[C@@H](C)C(=O)[C@H](C)[C@@H](O)[C@]1(C)O [Erythromycin A, reference compound]
[1]; Clostridium perfringens, 788
  MIC: 1.6 µg/mL (≈ 2.18 µM)
[2]; Enterococcus, GYR1167
  MIC: 2 µg/mL (≈ 2.73 µM)
[3]; Acinetobacter, SPCMX669
  MIC: 12.5 µg/mL (≈ 17 µM)
[4]; Bacteroides fragilis, read-out: MIC
  MIC: 0.4 µg/mL (≈ 0.545 µM)
[5]; Staphylococcus epidermidis, GYR1151, BHI agar, read-out: MIC
  MIC: 0.06 µg/mL (≈ 0.0818 µM)
[6]; Staphylococcus epidermidis, 3519RARI
  MIC: 0.39 µg/mL (≈ 0.531 µM)
[7]; Streptococcus pneumoniae, 78008107
  MIC: 128 µg/mL (≈ 174 µM)
[8]; Enterococcus, A5168
  MIC: 128 µg/mL (≈ 174 µM)
[9]; read-out: MIC
  MIC: 6.3 µg/mL (≈ 8.58 µM)
[10]; Staphylococcus aureus, CMX730A, read-out: MIC
  MIC: 0.06 µg/mL (≈ 0.0818 µM)
[11]; Escherichia coli, KNK437
  MIC: 100 µg/mL (≈ 136 µM)
[12]; Enterococcus, GYR1164
  MIC: 2 µg/mL (≈ 2.73 µM)
[13]; Enterococcus, CMX736F
  MIC: 0.1 µg/mL (≈ 0.136 µM)
[14]; Clostridium perfringens, 104
  MIC: 1.6 µg/mL (≈ 2.18 µM)
[15]; Enterococcus, CMX729G
  MIC: 0.1 µg/mL (≈ 0.136 µM)
[16]; Staphylococcus aureus, CYR1150, BHI agar, read-out: MIC
  MIC: 0.12 µg/mL (≈ 0.164 µM)
[17]; Enterococcus, GYR1166
  MIC: 1 µg/mL (≈ 1.36 µM)
[18]; Enterococcus faecalis, CMX663F
  MIC: 16 µg/mL (≈ 21.8 µM)
[19]; Staphylococcus epidermidis, CMX729H
  MIC: 128 µg/mL (≈ 174 µM)
[20]; Veillonella parvula, ATCC10790
  MIC: 12.5 µg/mL (≈ 17 µM)
[21]; Staph. aureus, mice, oral, dosed 1 and 5 hours post-infection, observed 7 days, read-out: ED-50
  ED50: 141 mg/kg
[21]; sc
  ED50: 21.4 mg/kg
[22]; Staphylococcus aureus, A5177
  MIC: 1.56 µg/mL (≈ 2.13 µM)
[23]; Streptococcus pyogenes, M79061139, BHI agar, read-out: MIC
  MIC: 0.015 µg/mL (≈ 0.0204 µM)
[24]
  MIC: 1.6 µg/mL (≈ 2.18 µM)
[25]
  MIC: 3.1 µg/mL (≈ 4.22 µM)
[26]; Prevotella intermedia, ATCC15930, BHI agar, read-out: MIC
  MIC: 0.4 µg/mL (≈ 0.545 µM)
[27]; Pseudomonas aeruginosa, K799/61
  MIC: 3.1 µg/mL (≈ 4.22 µM)
[28]; Staphylococcus epidermidis, CMX724G
  MIC: 128 µg/mL (≈ 174 µM)
[29]; Escherichia coli, DC2
  MIC: 50 µg/mL (≈ 68.1 µM)
[30]
  MIC: 0.05 µg/mL (≈ 0.0681 µM)
[31]; Streptococcus pneumoniae, CMX635, BHI agar, read-out: MIC
  MIC: 0.008 µg/mL (≈ 0.0109 µM)
[32]; Klebsiella aerogenes, ATCC10348
  MIC: 100 µg/mL (≈ 136 µM)
[33]; Staphylococcus aureus, CMX705, BHI agar, read-out: MIC
  MIC: 0.06 µg/mL (≈ 0.0818 µM)
